Measured values taken from article PMC3878625, “Inhibitory effects of grape skin extract and resveratrol on fatty acid synthase” (BMC Complementary and Alternative Medicine, 2013).
pIC50: −log10 of the molar value.

Target: T1, Fatty acid synthase (FAS) (Gallus gallus, UniProt P12276)
T1 construct: gene FASN; FAS purified from chicken liver
Experiment: spectrophotometric NADPH oxidation assay ([…] nm) of purified FAS, overall and KR reactions; time-dependent inhibition and Lineweaver-Burk kinetics
Type: biochemical

T1 sequence (P12276 2-2512): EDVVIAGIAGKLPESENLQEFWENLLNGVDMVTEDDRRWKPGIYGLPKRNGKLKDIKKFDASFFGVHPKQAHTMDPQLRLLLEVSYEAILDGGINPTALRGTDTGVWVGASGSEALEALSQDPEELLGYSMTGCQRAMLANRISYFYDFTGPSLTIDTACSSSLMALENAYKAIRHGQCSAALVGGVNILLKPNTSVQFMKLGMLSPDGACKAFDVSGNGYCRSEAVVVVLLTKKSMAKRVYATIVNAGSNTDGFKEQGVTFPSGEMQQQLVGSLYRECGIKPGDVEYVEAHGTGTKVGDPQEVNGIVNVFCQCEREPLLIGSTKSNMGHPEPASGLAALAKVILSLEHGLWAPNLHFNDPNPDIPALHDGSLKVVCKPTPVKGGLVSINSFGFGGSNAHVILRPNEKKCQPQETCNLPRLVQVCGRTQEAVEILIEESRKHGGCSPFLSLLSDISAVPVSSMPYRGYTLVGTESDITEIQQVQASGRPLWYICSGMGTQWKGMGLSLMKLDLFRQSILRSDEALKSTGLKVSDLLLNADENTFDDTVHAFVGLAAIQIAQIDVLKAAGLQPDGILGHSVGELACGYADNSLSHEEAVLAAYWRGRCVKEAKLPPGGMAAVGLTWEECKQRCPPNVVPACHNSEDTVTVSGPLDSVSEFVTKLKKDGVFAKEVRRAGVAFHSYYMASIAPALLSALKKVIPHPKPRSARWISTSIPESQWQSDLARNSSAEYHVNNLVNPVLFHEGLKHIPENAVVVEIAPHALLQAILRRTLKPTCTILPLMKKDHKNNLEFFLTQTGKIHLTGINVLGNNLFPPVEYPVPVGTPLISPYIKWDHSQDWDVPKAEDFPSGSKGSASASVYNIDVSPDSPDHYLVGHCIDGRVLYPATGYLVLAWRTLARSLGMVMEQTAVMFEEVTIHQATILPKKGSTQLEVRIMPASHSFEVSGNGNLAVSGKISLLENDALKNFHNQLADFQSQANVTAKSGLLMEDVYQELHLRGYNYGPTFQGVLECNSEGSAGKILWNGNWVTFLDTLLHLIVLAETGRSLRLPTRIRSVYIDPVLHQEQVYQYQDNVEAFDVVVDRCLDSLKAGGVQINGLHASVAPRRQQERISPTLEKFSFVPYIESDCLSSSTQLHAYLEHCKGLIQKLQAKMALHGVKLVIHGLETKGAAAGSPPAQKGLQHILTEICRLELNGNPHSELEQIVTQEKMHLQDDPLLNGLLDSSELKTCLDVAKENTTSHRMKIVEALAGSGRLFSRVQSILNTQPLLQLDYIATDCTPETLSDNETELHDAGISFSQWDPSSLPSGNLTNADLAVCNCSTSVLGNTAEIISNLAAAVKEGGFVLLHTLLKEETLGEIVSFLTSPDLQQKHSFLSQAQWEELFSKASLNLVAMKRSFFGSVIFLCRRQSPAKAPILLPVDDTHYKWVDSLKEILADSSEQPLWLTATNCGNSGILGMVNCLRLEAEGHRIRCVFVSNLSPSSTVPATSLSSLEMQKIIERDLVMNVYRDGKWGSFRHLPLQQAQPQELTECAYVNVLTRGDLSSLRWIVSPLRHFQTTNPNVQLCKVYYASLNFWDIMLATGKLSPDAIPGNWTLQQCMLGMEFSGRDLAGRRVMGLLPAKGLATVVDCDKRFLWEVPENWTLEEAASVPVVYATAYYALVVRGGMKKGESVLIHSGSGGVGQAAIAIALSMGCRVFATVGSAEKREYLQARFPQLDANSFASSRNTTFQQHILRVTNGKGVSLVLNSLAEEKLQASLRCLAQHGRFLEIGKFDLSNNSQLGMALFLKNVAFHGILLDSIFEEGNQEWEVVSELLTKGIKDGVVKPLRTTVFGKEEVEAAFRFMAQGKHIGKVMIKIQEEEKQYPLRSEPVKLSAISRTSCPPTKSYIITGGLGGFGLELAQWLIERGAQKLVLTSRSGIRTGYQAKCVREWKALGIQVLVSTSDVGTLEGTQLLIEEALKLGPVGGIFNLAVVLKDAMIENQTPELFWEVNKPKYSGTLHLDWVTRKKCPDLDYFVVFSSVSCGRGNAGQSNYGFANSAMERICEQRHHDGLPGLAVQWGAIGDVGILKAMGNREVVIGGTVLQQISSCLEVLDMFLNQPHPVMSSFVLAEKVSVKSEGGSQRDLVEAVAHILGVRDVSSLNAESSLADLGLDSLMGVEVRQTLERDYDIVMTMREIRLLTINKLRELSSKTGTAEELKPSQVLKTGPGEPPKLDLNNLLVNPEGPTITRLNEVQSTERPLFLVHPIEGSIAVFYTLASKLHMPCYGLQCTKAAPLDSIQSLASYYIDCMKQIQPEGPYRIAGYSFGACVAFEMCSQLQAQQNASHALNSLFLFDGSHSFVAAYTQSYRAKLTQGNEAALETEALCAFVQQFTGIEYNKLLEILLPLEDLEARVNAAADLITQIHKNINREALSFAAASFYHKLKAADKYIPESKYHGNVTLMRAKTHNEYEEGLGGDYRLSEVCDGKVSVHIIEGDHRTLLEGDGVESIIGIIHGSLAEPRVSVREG

Oc1ccc(/C=C/c2cc(O)cc(O)c2)cc1 [resveratrol, 3,5,4′-trihydroxystilbene]
pIC50: 4.31
